Measured values from PubChem BioAssay (NCI).
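Cultured in 96-well plates, cells were exposed to test compound for 48 hours across five concentrations. TGI: concentration producing complete growth inhibition.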

Key:
Experiment in all cases: inhibition of tumour cell growth, NCI panel, 48 h
A549 NSCLC = tested on: A549 NSCLC
NCI-H23 lung = tested on: NCI-H23 lung
OVCAR-5 ovarian = tested on: OVCAR-5 ovarian
SF-268 CNS = tested on: SF-268 CNS
SNB-75 CNS = tested on: SNB-75 CNS
MALME-3M melanoma = tested on: MALME-3M melanoma
MCF7 breast = tested on: MCF7 breast
DU-145 prostate = tested on: DU-145 prostate
SN12C renal = tested on: SN12C renal
SK-OV-3 ovarian = tested on: SK-OV-3 ovarian

Row | Structure (SMILES) | TGI (A549 NSCLC) [µM] | TGI (NCI-H23 lung) [µM] | TGI (OVCAR-5 ovarian) [µM] | TGI (SF-268 CNS) [µM] | TGI (SNB-75 CNS) [µM] | TGI (MALME-3M melanoma) [µM] | TGI (MCF7 breast) [µM] | TGI (DU-145 prostate) [µM] | TGI (SN12C renal) [µM] | TGI (SK-OV-3 ovarian) [µM]
1 | CCSC1=C(C#N)C2(CCCCC2)C2=C(CC(C)(C)CC2=O)N1 | > 100 | > 100 | > 100 | > 100 | 71.1 | 78.2 | > 100 | 60.8 | > 100 | –
2 | O=C1NC2(NC(=O)C1=O)Nc1ccccc1S2 | > 100 | > 100 | > 100 | > 76.3 | > 100 | > 100 | – | – | > 61.4 | > 100
3 | CC(=O)[C@H]1[C@@H](OCc2ccccc2)O[N+]([O-])=C(C)[C@@H]1c1ccccc1 | > 100 | > 100 | > 100 | > 100 | > 100 | 47 | > 100 | > 100 | – | > 100
4 | CC(C)(C)OC(=O)N1CCCC1C(=O)NCCNc1ccc(NCCNC(=O)C2CCCN2C(=O)OC(C)(C)C)c2c1C(=O)c1ccccc1C2=O (stereo not given) | 33.9 | 29.4 | 30.6 | > 100 | 87.9 | 33 | 34.2 | – | – | 39.6
5 | COc1ccc2[nH]c3c(C)c4ccnc(NCCCN(C)CCCN)c4c(C)c3c2c1 | – | 0.87 | 0.725 | – | 0.0976 | 1.19 | 0.313 | 0.652 | 0.257 | 2.47
6 | CCOC(=O)C(Cc1ccc2c(c1)CCC2)Cc1ccc2c(c1)CCC2 | > 100 | > 100 | > 100 | > 100 | > 100 | > 100 | > 100 | > 100 | – | > 100
7 | COC(=O)CCN1CCN(CCO)CC1C (stereo not given) | > 10 | > 10 | – | > 10 | > 10 | > 10 | > 10 | > 10 | > 10 | > 10
8 | COc1cc(CCC(=O)O)c2cc3ccccc3cc2c1O | 52.6 | 51.6 | 45.9 | 38.1 | – | 32.3 | 34.4 | – | 31.7 | > 100
9 | O=[N+]([O-])c1ccc(/C=N/n2c(CCc3n[nH]c(=S)n3/N=C/c3ccc([N+](=O)[O-])o3)n[nH]c2=S)o1 | – | 34.7 | > 100 | 50.7 | – | – | 39.7 | 29.7 | – | > 100
10 | Cc1ccc(S(=O)(=O)N/N=C2/C3C(CC2(C)C)C2(C)CCCC3(C)C2O)cc1 (stereo not given) | 63.7 | 42.8 | – | > 100 | 39.3 | 45.4 | 43.2 | > 100 | 36.5 | 44.8
11 | Cc1ccc(S(=O)(=O)C(C#N)c2nc3ccccc3nc2N2CCOCC2)cc1 (stereo not given) | > 100 | 55.1 | > 100 | 71.1 | > 100 | 63.5 | – | – | 96.4 | > 100
12 | O=NN(CCCl)C(=O)Nc1ccc(Cl)c(Cl)c1 | > 100 | > 100 | > 100 | > 100 | > 100 | > 100 | > 100 | – | > 100 | > 100
